The numbers were not newly measured in patent US11058666B2, “Oral administration of melanin for protection against radiation” (priority 2011, dated 2021), which cites them from elsewhere.

The structures appear in SMILES notation.

For this series the following is noted: after 9 Gy delivered at 1 Gy/min, published data.

Consider `NCCCNCCSP(=O)(O)O` [amifostine], for which the survival was 60%.
